This passage reports outcome, EC50 and IC50 results from PubChem BioAssay AID179 (DTP/NCI, 2004).

SMILES strings stand for the structures. Calls of active or inactive are those of the source.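 Rule for the calls: active = compounds giving half or more protection of infected cells from virus-caused growth loss, again on retest; inactive = the rest.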 Bounds are passed on as bounds.

For the assay, the system named is CEM cells HIV-1 protection, formazan growth assay. The assay can be described thus: NCI AIDS Antiviral Assay. Conditions: for IC50: measured here: growth of uninfected CEM cells. The procedure, abridged: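 Screen of anti-HIV-1 activity in human CEM cells using a formazan-based growth measurement at five drug concentrations. Hits with 50% or greater protection were repeated, and confirmation required reproducible complete protection.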

For `COc1ccc(C2CCc3cc4c(cc3/C2=N/OC(C)=O)OCO4)cc1OC` (stereo unspecified), the outcome was inactive.
As for `C(=Nc1ccc(/C=C\c2ccnc3ccccc23)cc1)Nc1ccc(/C=C\c2ccnc3ccccc23)cc1`, the EC50 is > 7.59 µM and the 50% inhibitory concentration (IC50) worked out at 5.62 µM.
For `CC[C@@]12C=CC(=S)N(CCSc3ccccc3)[C@@H]1c1c(n(S(=O)(=O)c3ccc(OC)cc3)c3ccccc13)CC2`, the EC50 was > 126 µM and the 50% inhibitory concentration (IC50) is > 126 µM.
On to `CC1(C)CC(=O)c2c(nc3c(ccc4ccccc43)c2-c2ccc(NC(=O)CCC(=O)Nc3ccc(-c4c5c(nc6c4ccc4ccccc46)CC(C)(C)CC5=O)cc3)cc2)C1`, for which the EC50 is > 100 µM and the 50% inhibitory concentration (IC50) was > 100 µM.
Consider `O=c1oc2ccccc2c(O)c1C(c1cccc(C(c2c(O)c3ccccc3oc2=O)c2c(O)c3ccccc3oc2=O)c1)c1c(O)c2ccccc2oc1=O`, for which the half-maximal effective concentration (EC50) was 42.7 µM and the half-inhibitory concentration (IC50) was > 100 µM.
For `O=C(O)CCc1coc2ccc(O)cc12`, the result was inactive.
With `O=S(=O)([N-]c1nc2ccccc2nc1-[n+]1ccccc1)c1ccccc1`, the EC50 is > 100 µM and the IC50 was > 100 µM.
As to `OC1(c2ccccc2)CC2CCC(C1)N2CCCC1(c2ccc(F)cc2)OCCO1` (stereo unspecified), the EC50 is > 200 µM and the half-maximal inhibitory concentration (IC50) amounted to 162 µM.
Turning to `O=c1c2c([nH]c3nccn13)CCC2`, the EC50 was > 200 µM and the IC50 is > 200 µM.
On to `COc1cc2c3c(c1OC)C1(C=CC(=O)C=C1)CC3N(C(C)=O)CC2` (stereo unspecified), for which the result was inactive.
Consider `O=C1NC2(CCNCC2)Oc2ccccc21`, for which the EC50 is > 200 µM and the half-maximal inhibitory concentration (IC50) was > 200 µM.
On to `CNC(=O)c1n[nH]nc1Sc1c([N+](=O)[O-])ncn1C`, for which the outcome was inactive.
On the same count and under the same terms, the same measure for `CC1CC(=O)c2c(ccc3c2C(=O)c2cccc(O)c2C3=O)C1` (stereo unspecified): “inactive”.
Consider `O=C(O)c1ccc(CSc2ccc(Cl)cc2)cc1`, for which the EC50 is > 35.5 µM and the half-maximal inhibitory concentration (IC50) was > 35.5 µM.
Take `COc1ccc(N(c2ccc(C#N)cc2)c2ccc(C#N)cc2)cc1`: the EC50 is > 45.7 µM and the IC50 was found to be 33.1 µM.
For `S=C(N/N=C(/c1ccccc1)c1ccccn1)N1CCCCC1`, the EC50 was > 2 µM and the IC50 amounted to 0.0389 µM.
Turning to `COc1ccc(C2OCC3OC(n4cc(C)c(=O)[nH]c4=O)C[C@H]3N2OC(C)=O)cc1` (stereo partly specified), the result was inactive.
Turning to `O=C1C=C2CC3c4[nH]c5ccccc5c4CCN3CC2CC1` (stereo unspecified), the EC50 is > 85.1 µM and the IC50 turned out to be 43.7 µM.
In the same order, the values of `CCOC(=O)c1nc2cc(C(F)(F)F)ccc2nc1Nc1ccc(F)cc1` are > 200 µM and 12.3 µM.
As for `OC1CC1Sc1ccccc1` (stereo unspecified), the result was inactive.
For the molecule `CCOC(=O)c1c2c(nc3c1CCC/C3=C\c1ccccc1)/C(=C/c1ccccc1)CCC2`, the EC50 was > 200 µM and the concentration for half-maximal inhibition (IC50) was > 200 µM.
For the molecule `CN1CCN(C(=S)N(C(=O)c2cccs2)C2CCCCC2)CC1`, the EC50 was > 195 µM and the IC50 worked out at 91.2 µM.
In the same order, the values of `C=C(C)[C@@H]1CC[C@]2(CNC(=O)CC(C)(C)CC(=O)O)CC[C@]3(C)[C@H](CC[C@@H]4[C@@]5(C)CC[C@H](NC(=O)CC(C)(C)CC(=O)O)C(C)(C)[C@@H]5CC[C@]43C)[C@@H]12` are > 200 µM and 18.2 µM.
In the same order, the values of `O=C1C=CC(=O)C(CNc2ccc(C(=O)OC34CC5CC(CC(C5)C3)C4)cc2)=C1` are > 200 µM and 10.5 µM.
With `O=C(Nc1ccc(Cl)cc1Cl)C(=O)Nn1c(=S)[nH]c2ccccc2c1=O`, the result was inactive.
`O=C(O)CCNc1ccc2c(c1)B(O)OC2`: the EC50 is > 692 µM and the 50% inhibitory concentration (IC50) was > 692 µM.
On to `Cc1ccc(SCC(CSCCO)OCn2cnc3c2NC(N)=NC32OCCO2)cc1` (stereo unspecified), for which the EC50 was > 200 µM and the IC50 is > 200 µM.
With `O=Nc1c(-c2ccccc2)nc2cnccn12`, the EC50 was > 200 µM and the concentration for half-maximal inhibition (IC50) turned out to be 5.89 µM.
Consider `Cc1ccc(-c2c(C#N)c(-c3ccccc3)c(C#N)c(=O)n2NS(=O)(=O)c2ccc(C)cc2)cc1`, for which the EC50 is > 200 µM and the IC50 is 57.5 µM.
As to `CC1(C)CC(=O)CC(C)(C)ON1`, the outcome was inactive.
`Cc1ccc(S(=O)(=O)Nn2c3c(cc(C#N)c2=O)CCC3)cc1`: the EC50 was > 200 µM and the IC50 is > 200 µM.
With `COc1cc(C)c(C(=O)/C=C/c2cc(OC)c(O)c(OC)c2)cc1O`, the EC50 is > 275 µM and the IC50 was determined as 12.9 µM.
Turning to `COc1nc(OC)nc(Sc2ccc(Sc3ccc(Sc4nc(OC)nc(OC)n4)cc3)cc2)n1`, the EC50 is > 13.5 µM and the half-inhibitory concentration (IC50) was > 13.5 µM.
`C/C(CC(=O)Nc1cccc([N+](=O)[O-])c1)=N\NC(=O)C[n+]1ccccc1`: the EC50 was > 631 µM and the IC50 was determined as 240 µM.
The corresponding values for `CC(C)(C)/C(O)=C\c1nc2cc(C(F)(F)F)ccc2[nH]c1=O` are > 200 µM and > 200 µM.
The corresponding values for `CC1(C)CC(=O)C(C=NC(=O)c2ccncc2)=C(O)C1` are 100 µM and > 200 µM.
The corresponding values for `CC(=O)NNC(=S)/N=C/C(C(=O)Nc1ccccc1)=C(/C)O` are > 200 µM and > 200 µM.
`CCC/C(=N\NC(=O)c1cc2ccccc2cc1O)C(CC)C(=O)CCC(=O)N(Cc1ccccc1)Cc1ccccc1` (stereo unspecified): the EC50 was > 44.7 µM and the 50% inhibitory concentration (IC50) was > 44.7 µM.
As to `COc1ccc(C2CCC(Cl)(OC)CC2C=O)cc1` (stereo unspecified), the EC50 was > 245 µM and the 50% inhibitory concentration (IC50) was found to be 155 µM.
In the same order, the values of `Cc1ccc(C(=O)Nc2ccc(S(=O)(=O)O)c3cc(S(=O)(=O)O)cc(S(=O)(=O)O)c23)cc1NC(=S)Nc1cc(C(=O)Nc2ccc(S(=O)(=O)O)c3cc(S(=O)(=O)O)cc(S(=O)(=O)O)c23)ccc1C` are 132 µM and 204 µM.
In the same order, the values of `COc1ccc(C2SC(N)=Nc3c2c(C)nn3C(=O)c2ccccc2O)cc1OC` (stereo unspecified) are > 20 µM and 0.617 µM.
The corresponding values for `Cc1cc2c(cc1Cl)SC(NN(C)C)=NS2(=O)=O` are > 200 µM and 117 µM.
For the molecule `O=C1NC(=Nc2ccccc2Cl)SC1C(=O)Nc1ccc([N+](=O)[O-])cc1[N+](=O)[O-]` (stereo unspecified), the EC50 was > 115 µM and the IC50 is > 115 µM.
As for `CN1C(=O)N(C)C2SC(=NCc3ccccc3)NN2C1=O` (stereo unspecified), the EC50 is > 85.1 µM and the IC50 is 81.3 µM.
In the same order, the values of `O=C1C2C3C=CC(C3)C2S(=O)(=O)C2C3C=CC(C3)C12` (stereo unspecified) are > 324 µM and > 324 µM.
In the same order, the values of `CSC12c3cc(C)n(-c4ccccc4)c3CC(C)(C)CN1C(=O)C2Oc1ccccc1` (stereo unspecified) are > 200 µM and 16.2 µM.
On to `COC(=O)C1=C(C(=O)OC)SC(=C(Br)C(=C2SC(C(=O)OC)=C(C(=O)OC)S2)C(=C2SC(C(=O)OC)=C(C(=O)OC)S2)C(Br)=C2SC(C(=O)OC)=C(C(=O)OC)S2)S1`, for which the EC50 was > 2.51 µM and the IC50 is > 2.51 µM.
Take `O=C(Nc1ccc(Cl)cc1Cl)C(=O)C(C(=O)c1ccncc1)C1OC(=O)c2ccccc21` (stereo unspecified): the EC50 was > 178 µM and the concentration for half-maximal inhibition (IC50) is > 178 µM.
Consider `COc1cccc(C(=O)N[C@@H]2[C@H](O)[C@@H](CO)O[C@H]2n2cnc3c(N)ncnc32)c1`, for which the EC50 is > 200 µM and the IC50 is > 200 µM.
Regarding `Cc1ccc(S(=O)(=O)c2ccc(C)cc2[N+](=O)[O-])cc1`, the EC50 is > 24.5 µM and the IC50 was > 24.5 µM.
As for `CCOC(=O)C1(Cc2c[nH]c3ccccc23)C(O)CCCN1C(C)=O` (stereo unspecified), the EC50 is > 200 µM and the IC50 came to 155 µM.
In the case of `CCN(CCCl)c1cc(CN(C)C)cc(NC(=O)c2ccc(C(=O)Nc3cc(CN(C)C)cc(N(CC)CCCl)c3)cc2)c1`, the EC50 was > 2 µM and the IC50 came out at 0.000631 µM.
`CCCc1nn(C)c(CCC(=O)N(Cc2ccccc2)Cc2ccccc2)c1CC`: the outcome was inactive.
As to `O=C(CC(c1ccccc1)c1c(O)c2ccccc2oc1=O)c1ccccc1` (stereo unspecified), the EC50 is > 200 µM and the half-inhibitory concentration (IC50) is 83.2 µM.
The corresponding values for `N#CNC1=NC(C(=O)O)CC(=O)N1CCc1c[nH]c2ccccc12` (stereo unspecified) are > 200 µM and 50.1 µM.
Turning to `O=C1/C(=C/c2ccccc2)CNC/C1=C\c1ccccc1`, the outcome was inactive.
On to `Cc1c2ccc(Cl)cc2nc2ccc(OCCNC(=O)[C@@H](N)CCCN=C(N)N)cc12`, for which the EC50 was > 200 µM and the concentration for half-maximal inhibition (IC50) turned out to be 30.9 µM.
The corresponding values for `N=C1OC(CN2CCN(c3ccccc3)CC2)CN1C(=S)Nc1ccccc1` (stereo unspecified) are > 200 µM and 141 µM.
With `Oc1ccc(C2SCc3nc4ccccc4n32)cc1` (stereo unspecified), the EC50 was > 26.9 µM and the IC50 is > 26.9 µM.
Turning to `COc1ccc2[nH]c(C(=O)N3CC(CCl)c4c3cc(N)c3ccccc43)cc2c1` (stereo unspecified), the EC50 was > 0.2 µM and the IC50 is 0.00158 µM.
Take `CC1CCCC(C(=O)/C(=C/c2cccc(Cl)c2)C(=O)C(=O)O)C1` (stereo unspecified): the EC50 is > 15.5 µM and the IC50 is > 15.5 µM.
On to `[N-]=[N+]=NCc1nc(N)c2c3c(sc2n1)CCCC3`, for which the EC50 is > 200 µM and the IC50 is 1.12 µM.
Turning to `CS(=O)(=O)Nc1ccc2ccccc2c1-c1c(NS(C)(=O)=O)ccc2ccccc12`, the EC50 is > 50.1 µM and the concentration for half-maximal inhibition (IC50) worked out at 47.9 µM.
The corresponding values for `CC(=O)C1C(=O)C(=O)N(c2ccc([N+](=O)[O-])cc2[N+](=O)[O-])C1=O` (stereo unspecified) are > 200 µM and > 200 µM.
The corresponding values for `O=c1c2ccccc2[nH]c2c(Cl)cc(Cl)c(N3CCCCC3)c12` are > 200 µM and 12.9 µM.
In the same order, the values of `Nc1cccc(OCC2CCCN3CCCCC23)c1` (stereo unspecified) are > 200 µM and 13.8 µM.
In the case of `N#C/C(N)=C(\C#N)NC=NCCO`, the EC50 is > 200 µM and the concentration for half-maximal inhibition (IC50) is > 200 µM.
With `COc1nc2c(nc(N)n2C2OC(CO)C(O)C(O)C2O)c(=O)[nH]1` (stereo unspecified), the outcome was inactive.
As to `COC(=O)[C@H](Cc1ccccc1)NC(=O)/C(=C/C(C)C)NC(=O)[C@H](CCSC)NC=O`, the EC50 was > 550 µM and the half-maximal inhibitory concentration (IC50) was > 100 µM.
